Reference: PubChem BioAssay AID276 (DTP/NCI, 2004)
Where “and” joins values, the source holds several entries; their conditions need not be identical. Equal values may be shown once. Inconclusive results and toxic doses are left out. Residues, ends and D or L forms follow the SMILES beside them. *: point of attachment. Trt = c1ccc(C(c2ccccc2)(c2ccccc2)*)cc1; Cbz = O=C(OCc1ccccc1)*

System: B6C3F1 mice, Lewis lung carcinoma iv, survival T/C
Experiment: NCI In Vivo Anticancer Drug Screen. Data for tumor model Lewis Lung Carcinoma (intravenous) in B6C3F1 mice
Conditions: endpoint: median survival time, schedule: Q01DX009 (ip), higher = longer survival
Description: The antitumor activity of compounds was measured in mice bearing transplantable tumors. Survival or tumor size were measured and the results are expressed as the measurement made in the treated group (T) divided by the measurement made in the vehicle treated control group (C). The tumor model used in this assay is Lewis Lung Carcinoma (intravenous) in B6C3F1 mice

[1] = dose: 25.0 mg/kg/injection, vehicle: saline
[2] = dose: 50.0 mg/kg/injection, vehicle: saline
[3] = dose: 12.5 mg/kg/injection, vehicle: saline with Tween-80
[4] = dose: 25.0 mg/kg/injection, vehicle: saline with Tween-80
[5] = dose: 50.0 mg/kg/injection, vehicle: saline with Tween-80
[6] = dose: 100.0 mg/kg/injection, vehicle: saline with Tween-80
[7] = dose: 200.0 mg/kg/injection, vehicle: saline with Tween-80
[8] = dose: 400.0 mg/kg/injection, vehicle: saline with Tween-80
[9] = dose: 12.5 mg/kg/injection, vehicle: distilled water + Tween-80
[10] = dose: 25.0 mg/kg/injection, vehicle: distilled water + Tween-80
[11] = dose: 50.0 mg/kg/injection, vehicle: distilled water + Tween-80
[12] = dose: 100.0 mg/kg/injection, vehicle: distilled water + Tween-80
[13] = dose: 200.0 mg/kg/injection, vehicle: distilled water + Tween-80
[14] = dose: 6.25 mg/kg/injection, vehicle: Klucel (hydroxypropylcellulose) (HPC)
[15] = dose: 12.5 mg/kg/injection, vehicle: Klucel (hydroxypropylcellulose) (HPC)
[16] = dose: 25.0 mg/kg/injection, vehicle: Klucel (hydroxypropylcellulose) (HPC)
[17] = dose: 50.0 mg/kg/injection, vehicle: Klucel (hydroxypropylcellulose) (HPC)
[18] = dose: 100.0 mg/kg/injection, vehicle: Klucel (hydroxypropylcellulose) (HPC)
[19] = dose: 100.0 mg/kg/injection, vehicle: saline
[20] = dose: 12.5 mg/kg/injection, vehicle: saline

CC(=O)OC1C(O)C(C)OC(OC2C(OC(=O)C3CCC4C(C3)OC3(CC(OC(=O)/C=C/c5ccccc5)C(C)CO3)C43CO3)OC(C)C(O)C2OC(C)=O)C1O (stereo not drawn)
T/C (dose: 1.0 mg/kg/injection, vehicle: distilled water + Tween-80): 105 % of control | T/C (dose: 2.0 mg/kg/injection, vehicle: distilled water + Tween-80): 99 % of control | T/C (dose: 4.0 mg/kg/injection, vehicle: distilled water + Tween-80): 100 % of control | T/C (dose: 8.0 mg/kg/injection, vehicle: distilled water + Tween-80): 102 % of control | T/C (dose: 16.0 mg/kg/injection, vehicle: distilled water + Tween-80): 91 % of control

COc1cc2c(ccc3c4cc(OC)c(OC)cc4c[n+](C)c23)cc1O
T/C [1]: 111 % of control | T/C [2]: 113 % of control

O=C(O)C1Cc2nc[nH]c2CN1CO (stereo not drawn)
T/C [3]: 109 % of control | T/C [4]: 104 % of control | T/C [5]: 99 % of control | T/C [6]: 114 % of control | T/C [7]: 103 % of control | T/C [8]: 98 % of control

C[CH2][Sn]([CH2]C)([CH2]C(=O)OC)[CH2]C(=O)OC
T/C (dose: 0.78 mg/kg/injection, vehicle: saline with Tween-80): 102 % of control | T/C (dose: 1.56 mg/kg/injection, vehicle: saline with Tween-80): 104 % of control | T/C (dose: 3.12 mg/kg/injection, vehicle: saline with Tween-80): 99 % of control | T/C (dose: 6.25 mg/kg/injection, vehicle: saline with Tween-80): 101 % of control | T/C [3]: 104 % of control and 105 % of control

CCc1nc(N)nc(N)c1-c1ccc(Cl)c(N=[N+]=[N-])c1
T/C [9]: 97 % of control | T/C [10]: 100 % of control | T/C [11]: 100 % of control | T/C [12]: 106 % of control and 110 % of control | T/C [13]: 119 % of control

COC(=O)C(CSC(c1ccccc1)(c1ccccc1)c1ccccc1)NC(=O)C(CC(N)=O)NC(=O)OCc1ccccc1 (stereo not drawn) (Cbz-Asn-Cys(Trt)-OMe; configuration not given here)
T/C [9]: 97 % of control | T/C [10]: 103 % of control | T/C [11]: 103 % of control | T/C [12]: 98 % of control | T/C [13]: 97 % of control | T/C (dose: 400.0 mg/kg/injection, vehicle: distilled water + Tween-80): 98 % of control

CCCCN(CCCC)C(Cl)=Nc1ccccc1
T/C [14]: 106 % of control | T/C [15]: 107 % of control | T/C [16]: 94 % of control | T/C [17]: 96 % of control | T/C [18]: 98 % of control

CC(C)(C)C1CCCCC1
T/C [15]: 92 % of control | T/C [16]: 93 % of control | T/C [17]: 108 % of control | T/C [18]: 101 % of control | T/C (dose: 200.0 mg/kg/injection, vehicle: Klucel (hydroxypropylcellulose) (HPC)): 103 % of control | T/C (dose: 400.0 mg/kg/injection, vehicle: Klucel (hydroxypropylcellulose) (HPC)): 96 % of control

NC1(C(=O)O)CCCC1
T/C [1]: 102 % of control | T/C [2]: 109 % of control and 111 % of control and 120 % of control | T/C [19]: 121 % of control

N#CCCSC(=S)C1CCCC1=N (stereo not drawn)
T/C [3]: 99 % of control | T/C [4]: 103 % of control | T/C [5]: 98 % of control | T/C [6]: 103 % of control | T/C [7]: 105 % of control | T/C [8]: 106 % of control

Nc1ccc(Cn2ccc3c4c(N)nc(N)nc4ccc32)cc1
T/C (dose: 1.25 mg/kg/injection, vehicle: saline with Tween-80): 105 % of control | T/C (dose: 2.5 mg/kg/injection, vehicle: saline with Tween-80): 107 % of control | T/C (dose: 5.0 mg/kg/injection, vehicle: saline with Tween-80): 107 % of control | T/C (dose: 10.0 mg/kg/injection, vehicle: saline with Tween-80): 108 % of control

CSC(SC)=C1C(=O)NC(=O)NC1=O
T/C (dose: 3.12 mg/kg/injection, vehicle: saline): 103 % of control | T/C (dose: 6.25 mg/kg/injection, vehicle: saline): 105 % of control | T/C [20]: 96 % of control | T/C [1]: 112 % of control

COc1cccc(C2NC(=O)c3c(n[nH]c3N)S2)c1O (stereo not drawn)
T/C [3]: 114 % of control | T/C [4]: 102 % of control | T/C [5]: 122 % of control | T/C [6]: 99 % of control | T/C [7]: 109 % of control

CS(=O)(=O)CS(=O)(=O)OCCCl
T/C [20]: 107 % of control | T/C [1]: 120 % of control | T/C [2]: 284 % of control | T/C [19]: 239 % of control

O=C(O)CC(=O)O.[NH-]CC[NH-].[Pt+2]
T/C (dose: 1.56 mg/kg/injection, vehicle: dextrose): 108 % of control | T/C (dose: 3.12 mg/kg/injection, vehicle: dextrose): 107 % of control and 120 % of control | T/C (dose: 6.25 mg/kg/injection, vehicle: dextrose): 105 % of control and 109 % of control | T/C (dose: 12.5 mg/kg/injection, vehicle: dextrose): 102 % of control and 119 % of control

CN(C=O)C(C(=O)Nc1cccc2c(OC(=O)C(N(C)C=O)(N(C)C=O)N(C)C=O)c(N=Nc3ccc(S(=O)(=O)Nc4nccs4)cc3)cc(N=Nc3ccc(S(=O)(=O)Nc4nccs4)cc3)c12)(N(C)C=O)N(C)C=O (tested in a mixture with another compound)
T/C [4]: 103 % of control | T/C [5]: 98 % of control | T/C [6]: 99 % of control and 104 % of control | T/C [7]: 94 % of control and 98 % of control | T/C [8]: 103 % of control and 110 % of control | T/C (dose: 800.0 mg/kg/injection, vehicle: saline with Tween-80): 107 % of control

NC(CSC(c1ccccc1)(c1ccccc1)c1ccccc1)C(=O)O (stereo not drawn)
T/C (dose: 3.12 mg/kg/injection, vehicle: Klucel (hydroxypropylcellulose) (HPC)): 116 % of control | T/C [14]: 96 % of control | T/C [15]: 111 % of control | T/C [16]: 102 % of control | T/C [17]: 107 % of control

[Cl][Pt+2][Cl].[NH-]C1CCC1.[NH2-]
T/C (dose: 0.75 mg/kg/injection, vehicle: saline): 101 % of control | T/C (dose: 3.0 mg/kg/injection, vehicle: saline): 111 % of control | T/C (dose: 6.0 mg/kg/injection, vehicle: saline): 124 % of control

Cn1cnc([N+](=O)[O-])c1Sc1ncn[nH]1
T/C [20]: 104 % of control | T/C [1]: 111 % of control | T/C [2]: 124 % of control | T/C [19]: 116 % of control

OC(C1CO1)C(O)C1CO1 (stereo not drawn)
T/C (dose: 0.25 mg/kg/injection, vehicle: saline): 101 % of control | T/C (dose: 0.5 mg/kg/injection, vehicle: saline): 100 % of control | T/C (dose: 1.0 mg/kg/injection, vehicle: saline): 102 % of control | T/C (dose: 2.0 mg/kg/injection, vehicle: saline): 109 % of control

O=C(Nc1cc(Cl)ccc1C(=O)O)c1cccc(C[n+]2ccccc2)c1
T/C [3]: 107 % of control | T/C [4]: 102 % of control | T/C [5]: 92 % of control | T/C [6]: 95 % of control | T/C [7]: 100 % of control and 102 % of control

CC(=O)O[C@@H]1CO[C@H]2O[C@H]3[C@@H](C(C=O)=C[C@H](O)[C@@H]4C5=C(C(C)C)CC[C@]5(C)CC[C@@]34C)[C@@]2(O)C1=O
T/C (dose: 0.75 mg/kg/injection, vehicle: Klucel (hydroxypropylcellulose) (HPC)): 103 % of control | T/C (dose: 1.5 mg/kg/injection, vehicle: Klucel (hydroxypropylcellulose) (HPC)): 98 % of control | T/C (dose: 3.0 mg/kg/injection, vehicle: Klucel (hydroxypropylcellulose) (HPC)): 100 % of control

O=C(O)C(CSC(c1ccccc1)(c1ccccc1)c1ccccc1)N=Cc1cccs1 (stereo not drawn)
T/C (dose: 12.5 mg/kg/injection, vehicle: suspension in saline): 104 % of control | T/C (dose: 25.0 mg/kg/injection, vehicle: suspension in saline): 100 % of control | T/C (dose: 50.0 mg/kg/injection, vehicle: suspension in saline): 105 % of control
